In brackets after ≈: the same amount, converted by molar mass.
How the values were obtained:
Type in all cases: cell-based
[1] = tested on: Staphylococcus aureus 697E; test: In vitro antibacterial activity against resistant strains (MIC); details: resistant strain Staphylococcus aureus 697E; 2-fold agar dilution; methicillin resistant strains 48 hours at 30° C.; read-out: minimum inhibitory concentration (MIC)
Protocol: (§1) 10^7 cfu/ml of bacteria were inoculated and cultured for 18 hours at 37° C. and then the antibacterial activities were measured. For the methicillin resistant strains the activities were measured after 48 hours of cultivation at 30° C. Hoechst Standard strains were used for the testings.

[2] = tested on: Staphylococcus aureus 690E; test: as above; details: resistant strain Staphylococcus aureus 690E; 2-fold agar dilution; methicillin resistant strains 48 hours at 30° C.; read-out: minimum inhibitory concentration (MIC)
Protocol: as §1

[3] = tested on: Staphylococcus aureus 241; test: as above; details: resistant strain Staphylococcus aureus 241; 2-fold agar dilution; methicillin resistant strains 48 hours at 30° C.; read-out: minimum inhibitory concentration (MIC)
Protocol: as §1

[4] = tested on: Staphylococcus aureus 293; test: as above; details: resistant strain Staphylococcus aureus 293; 2-fold agar dilution; methicillin resistant strains 48 hours at 30° C.; read-out: minimum inhibitory concentration (MIC)
Protocol: as §1

[5] = tested on: Staphylococcus aureus 694E; test: as above; details: resistant strain Staphylococcus aureus 694E; 2-fold agar dilution; methicillin resistant strains 48 hours at 30° C.; read-out: minimum inhibitory concentration (MIC)
Protocol: as §1

[6] = tested on: Staphylococcus aureus 121E; test: as above; details: resistant strain Staphylococcus aureus 121E; 2-fold agar dilution; methicillin resistant strains 48 hours at 30° C.; read-out: minimum inhibitory concentration (MIC)
Protocol: as §1

[7] = tested on: Staphylococcus aureus 179; test: as above; details: resistant strain Staphylococcus aureus 179; 2-fold agar dilution; methicillin resistant strains 48 hours at 30° C.; read-out: minimum inhibitory concentration (MIC)
Protocol: as §1

[8] = tested on: Staphylococcus aureus 8236; test: as above; details: resistant strain Staphylococcus aureus 8236; 2-fold agar dilution; methicillin resistant strains 48 hours at 30° C.; read-out: minimum inhibitory concentration (MIC)
Protocol: as §1

[9] = tested on: Staphylococcus aureus 256E; test: as above; details: resistant strain Staphylococcus aureus 256E; 2-fold agar dilution; methicillin resistant strains 48 hours at 30° C.; read-out: minimum inhibitory concentration (MIC)
Protocol: as §1

[10] = tested on: Staphylococcus aureus 88E; test: as above; details: resistant strain Staphylococcus aureus 88E; 2-fold agar dilution; methicillin resistant strains 48 hours at 30° C.; read-out: minimum inhibitory concentration (MIC)
Protocol: as §1

[11] = tested on: Staphylococcus epidermidis 178; test: as above; details: resistant strain Staphylococcus epidermidis 178; 2-fold agar dilution; methicillin resistant strains 48 hours at 30° C.; read-out: minimum inhibitory concentration (MIC)
Protocol: as §1

[12] = tested on: Staphylococcus aureus 703E; test: as above; details: resistant strain Staphylococcus aureus 703E; 2-fold agar dilution; methicillin resistant strains 48 hours at 30° C.; read-out: minimum inhibitory concentration (MIC)
Protocol: as §1

[13] = tested on: Staphylococcus aureus 692E; test: as above; details: resistant strain Staphylococcus aureus 692E; 2-fold agar dilution; methicillin resistant strains 48 hours at 30° C.; read-out: minimum inhibitory concentration (MIC)
Protocol: as §1

[14] = tested on: Staphylococcus aureus 303; test: as above; details: resistant strain Staphylococcus aureus 303; 2-fold agar dilution; methicillin resistant strains 48 hours at 30° C.; read-out: minimum inhibitory concentration (MIC)
Protocol: as §1

[15] = tested on: Staphylococcus aureus 693E; test: as above; details: resistant strain Staphylococcus aureus 693E; 2-fold agar dilution; methicillin resistant strains 48 hours at 30° C.; read-out: minimum inhibitory concentration (MIC)
Protocol: as §1

[16] = tested on: Staphylococcus aureus 701E; test: as above; details: resistant strain Staphylococcus aureus 701E; 2-fold agar dilution; methicillin resistant strains 48 hours at 30° C.; read-out: minimum inhibitory concentration (MIC)
Protocol: as §1

[17] = tested on: Staphylococcus epidermidis 291; test: as above; details: resistant strain Staphylococcus epidermidis 291; 2-fold agar dilution; methicillin resistant strains 48 hours at 30° C.; read-out: minimum inhibitory concentration (MIC)
Protocol: as §1

[18] = tested on: Staphylococcus aureus 208E; test: as above; details: resistant strain Staphylococcus aureus 208E; 2-fold agar dilution; methicillin resistant strains 48 hours at 30° C.; read-out: minimum inhibitory concentration (MIC)
Protocol: as §1

[19] = tested on: Staphylococcus aureus 695E; test: as above; details: resistant strain Staphylococcus aureus 695E; 2-fold agar dilution; methicillin resistant strains 48 hours at 30° C.; read-out: minimum inhibitory concentration (MIC)
Protocol: as §1

[20] = tested on: Pseudomonas aeruginosa 1592E; test: In vitro antibacterial activity (MIC), agar dilution; details: 2-fold agar dilution, Muller-Hinton agar, 18 hours at 37° C., read-out: minimum inhibitory concentration (MIC)
Protocol: as §1

[21] = tested on: Pseudomonas aeruginosa 1771; test: as above; details: 2-fold agar dilution, Muller-Hinton agar, 18 hours at 37° C., read-out: minimum inhibitory concentration (MIC)
Protocol: as §1

[22] = tested on: Streptococcus pyogens 308A; test: as above; details: 2-fold agar dilution, Muller-Hinton agar, 18 hours at 37° C., read-out: minimum inhibitory concentration (MIC)
Protocol: as §1

[23] = tested on: Streptococcus pyogens 77A; test: as above; details: 2-fold agar dilution, Muller-Hinton agar, 18 hours at 37° C., read-out: minimum inhibitory concentration (MIC)
Protocol: as §1

Esherichia coli 1507E = test: as above; details: 2-fold agar dilution, Muller-Hinton agar, 18 hours at 37° C., read-out: minimum inhibitory concentration (MIC)
Protocol: as §1

[24] = tested on: Pseudomonas aeruginosa 9027; test: as above; details: 2-fold agar dilution, Muller-Hinton agar, 18 hours at 37° C., read-out: minimum inhibitory concentration (MIC)
Protocol: as §1

Esherichia coli DC2 = test: as above; details: 2-fold agar dilution, Muller-Hinton agar, 18 hours at 37° C., read-out: minimum inhibitory concentration (MIC)
Protocol: as §1

Klebsiella oxytoca 1082E = test: as above; details: 2-fold agar dilution, Muller-Hinton agar, 18 hours at 37° C., read-out: minimum inhibitory concentration (MIC)
Protocol: as §1

[25] = tested on: Streptococcus faecium MD 8b; test: as above; details: Enterococcus faecium, MD8B, 2-fold agar dilution, Muller-Hinton agar, 18 hours at 37° C., read-out: minimum inhibitory concentration (MIC)
Protocol: as §1

Esherichia coli TEM = test: as above; details: 2-fold agar dilution, Muller-Hinton agar, 18 hours at 37° C., read-out: minimum inhibitory concentration (MIC)
Protocol: as §1

[26] = tested on: Pseudomonas aeruginosa 1771M; test: as above; details: Pseudomonas aeruginosa, 1771M, 18 h, read-out: minimum inhibitory concentration (MIC)
Protocol: as §1

[27] = tested on: Staphylococcus aureus SG511; test: as above; details: 2-fold agar dilution, Muller-Hinton agar, 18 hours at 37° C., read-out: minimum inhibitory concentration (MIC)
Protocol: as §1

Esherichia coli 078 = test: as above; details: 2-fold agar dilution, Muller-Hinton agar, 18 hours at 37° C., read-out: minimum inhibitory concentration (MIC)
Protocol: as §1

[28] = tested on: Staphylococcus aureus 285; test: as above; details: 2-fold agar dilution, Muller-Hinton agar, 18 hours at 37° C., read-out: minimum inhibitory concentration (MIC)
Protocol: as §1

Esherichia coli DC0 = test: as above; details: 2-fold agar dilution, Muller-Hinton agar, 18 hours at 37° C., read-out: minimum inhibitory concentration (MIC)
Protocol: as §1

Salmonella typhimurium = test: as above; details: Salmonella enterica, 2-fold agar dilution, Muller-Hinton agar, 18 hours at 37° C., read-out: minimum inhibitory concentration (MIC)
Protocol: as §1

[29] = tested on: Klebsiella aerogenes 1522E; test: as above; details: 2-fold agar dilution, Muller-Hinton agar, 18 hours at 37° C., read-out: minimum inhibitory concentration (MIC)
Protocol: as §1

[30] = tested on: Staphylococcus aureus 503; test: as above; details: 2-fold agar dilution, Muller-Hinton agar, 18 hours at 37° C., read-out: minimum inhibitory concentration (MIC)
Protocol: as §1

[31] = tested on: Enterobacter clocae 1321E; test: as above; details: 2-fold agar dilution, Muller-Hinton agar, 18 hours at 37° C., read-out: minimum inhibitory concentration (MIC)
Protocol: as §1

Enterobacter clocae P99 = test: as above; details: 2-fold agar dilution, Muller-Hinton agar, 18 hours at 37° C., read-out: minimum inhibitory concentration (MIC)
Protocol: as §1

SMILES	MIC [20] [mg/L]	MIC [21] [mg/L]	MIC [22] [mg/L]	MIC [23] [mg/L]	MIC (Esherichia coli 1507E) [mg/L]	MIC [24] [mg/L]	MIC (Esherichia coli DC2) [mg/L]	MIC (Klebsiella oxytoca 1082E) [mg/L]	MIC [25] [mg/L]	MIC (Esherichia coli TEM) [mg/L]	MIC [26] [mg/L]	MIC [27] [mg/L]	MIC (Esherichia coli 078) [mg/L]	MIC [28] [mg/L]	MIC (Esherichia coli DC0) [mg/L]	MIC (Salmonella typhimurium) [mg/L]	MIC [29] [mg/L]	MIC [30] [mg/L]	other results
O=C(O)c1cn(C2CC2)c2cc(N3CCNCC3)c(F)cc2c1=O [Ciprofloxacin, ciprofloxacin, reference compound]	0.195 (≈ 0.589 µM)	0.195 (≈ 0.589 µM)	3.12 (≈ 9.43 µM)	0.781 (≈ 2.36 µM)	0.007 (≈ 0.0211 µM)	0.195 (≈ 0.589 µM)	0.049 (≈ 0.148 µM)	< 0.002	0.391 (≈ 1.18 µM)	0.007 (≈ 0.0211 µM)	0.049 (≈ 0.148 µM)	0.195 (≈ 0.589 µM)	0.004 (≈ 0.0121 µM)	0.781 (≈ 2.36 µM)	0.195 (≈ 0.589 µM)	0.007 (≈ 0.0211 µM)	0.013 (≈ 0.0392 µM)	0.391 (≈ 1.18 µM)	MIC [1]: 0.391 mg/L (≈ 1.18 µM); MIC [2]: 0.391 mg/L (≈ 1.18 µM); MIC [3]: 12.5 mg/L (≈ 37.7 µM); MIC [4]: 12.5 mg/L (≈ 37.7 µM); MIC [5]: 0.391 mg/L (≈ 1.18 µM); MIC [6]: 0.781 mg/L (≈ 2.36 µM); MIC [7]: 12.5 mg/L (≈ 37.7 µM); MIC [8]: 12.5 mg/L (≈ 37.7 µM); MIC [9]: 0.781 mg/L (≈ 2.36 µM); MIC [10]: 0.781 mg/L (≈ 2.36 µM); MIC [11]: 50 mg/L (≈ 151 µM); MIC [12]: 0.391 mg/L (≈ 1.18 µM); MIC [13]: 0.391 mg/L (≈ 1.18 µM); MIC [14]: 12.5 mg/L (≈ 37.7 µM); MIC [15]: 0.391 mg/L (≈ 1.18 µM); MIC [16]: 0.391 mg/L (≈ 1.18 µM); MIC [17]: 50 mg/L (≈ 151 µM); MIC [18]: 0.781 mg/L (≈ 2.36 µM); MIC [19]: 0.391 mg/L (≈ 1.18 µM)
CON=C1CN(c2cc3c(cc2F)c(=O)c(C(=O)O)cn3C2CC2)CC12CNC2.CS(=O)(=O)O [Example 2, 1-Cyclopropyl-6-fluoro-7-[8-(methoxyimino)-2,6-diazaspiro[3,4]oct-6-yl]-4-oxo-1,4-dihydro-3-quinolinecarboxylic acid methane sulfonate]	0.391	0.391	0.195	0.007	0.049	0.781	0.013	0.007	0.098	0.049	0.391	0.013	0.025	0.049	0.198	0.025	0.098	0.049	MIC [31]: 0.025 mg/L; MIC (Enterobacter clocae P99): 0.049 mg/L

From patent US6552196B2, “Quinolone carboxylic acid derivatives” (Dong Wha Pharmaceutical Industrial Co., Ltd., priority 1997, dated 2003)
